The values below come from patent publication US20200078459A1, “NEAR INFRARED (NIR) PHOTODYNAMIC THERAPY (PDT) IN COMBINATION WITH CHEMOTHERAPY” (Health Research, Inc., priority 2016, published 2020).

Series [1] relates to non-small cell carcinoma (NSCLC) xenografts. The following applies: for antitumor activity of the alone drug: no PDT. The method, then: 3) Tumor transplantation: the xenografts used for antitumor activity were transplanted subcutaneously. The treatment was initiated 7-10 days post transplantation. 4) Tumor measurement: two axes (mm) of tumor (L, longest axis; W, shortest axis) were measured with the aid of a Vernier caliper. Tumor weight (mg) was estimated as a formula tumor weight ½ (L×W2). Tumor measurements were taken after the scabbing healed post PDT and at least three times a week for post therapy and twice a week therefore. 5) Tumor regression: complete tumor regression (CR) was defined as the inability to detect tumor by palpation at the initial site of tumor appearance for more than two months post therapy. […] Partial tumor regression (PR) was defined as ≥50% reduction in initial tumor size. Normally, 5 mice per treatment group were included in these experiment groups and repeated at least twice.
PDT of Subcutaneous Tumors—Tumor bearing mice are injected via the tail vein with HPPH or derivatives at doses that are non-toxic unless exposed to light. For tail vein injections, mice were gently restrained in approved holders and their tails were briefly (less than 1 minute) dipped in warm sterile water (˜40° C.). Photosensitizers are injected in a volume of less than 0.2 mL into the tail vein using a 27-gauge needle.
The photosensitizers, at 24 hours (or the optimal time determined by optical imaging) after administration of HPPH or derivatives, the animals were partially restrained allowing leg movement, in specially designed holders without anesthesia.
Tumors are exposed to visible light (1 cm diameter) at power densities of less than 100 mW/cm^2. The light sources are either a dye laser (with a tunable range of 600 to 800 nm), at the optimal excitation wavelength for the individual photosensitizer; or a pulsed laser with a range of 460 to 800 nm. The treatment will vary, depending on the light dose (J/cm^2) and fluence rate (mW/cm^2) required, but usually is for approximately 30 minutes.
After light exposure, the mice are monitored closely for at least 1 hour and then daily until the re-growing tumors reach no more than 2 cm in the greatest dimension or for a maximum of 60 days (post treatment) at which time they are euthanized. All animals will be euthanized within 90 days of tumor implantation.

The nature of series [2]: Skin phototoxicity of the photosensitizers. The following applies: in contrast to most of the clinically approved PS. In kind it is in vivo.
For series [3], the system named is skin cancer (basal cell carcinoma) early lung cancer and esophageal cancers. The series can be described thus: Phase I human clinical trials of HPPH. In kind it is in vivo.
In series [4] the test system is FaDu head and neck cancer xenografts. The series can be described thus: PDT response and antitumor activity in SCID mice bearing FaDu head and neck cancer xenografts. It counts as in vivo. The method, then:
First dose of irinotecan: 1 h post-PDT treatment.
Human head and neck cancer xenografts (FaDu and H&N 85-1)
The treatment was initiated 7-10 post transplantation.

The conditions of series [5]: patients advised to be away from sunlight at least 6-8 weeks after the light treatment; cited from earlier work.
[6] abbreviates: 5 mg/kg weekly×3 doses, in combination with HPPH or Photobac with PDT, 8/10 mice.

Like-named read-outs stand apart in the source and are kept apart here.

As to `N.N.[Cl][Pt][Cl]` [Cisplatin, cisplatin], in series [1] (setting [6]), the “CR (complete tumor regression)” value was determined as 80%. Also, the “antitumor activity of the alone drug” value in series [1] (5 mg/kg weekly×3 doses) was “not effective”.
In the case of `COc1cccc2c1C(=O)c1c(O)c3c(c(O)c1C2=O)C[C@@](O)(C(=O)CO)C[C@@H]3O[C@H]1C[C@H](N)[C@H](O)[C@H](C)O1` [Doxorubicin, doxorubicin], the “CR (complete tumor regression)” value in series [1] (setting [6]) was determined as 80%. In addition, the “antitumor activity of the alone drug” value in series [1] (5 mg/kg weekly×3 doses) is listed as “not effective”. In addition, the toxicity entry in series [1] (mouse, in vivo) is recorded as “no significant effects”.
`CCCCCCOC(C)c1c(C)c2cc3nc(c4c5[nH]c(cc6nc(cc1[nH]2)C(C)=C6CC)c(C)c5C(=O)C4)[C@@H](CCC(=O)O)[C@@H]3C` (some centres unmarked) [HPPH, 3-(1′-hexyloxy)ethyl-3-devinylpyropheopphorbide-a]: the skin photo toxicity result in series [2] is reported as “do not produce any skin photo toxicity”. Further, in series [1] (PDT with HPPH, without chemotherapy), the “CR (complete tumor regression)” value was found to be 20%. The “effectiveness in treatment of cancer” value in series [3] is recorded as “effective”.
Turning to `CCc1c2c(nc3ccc(OC(=O)N4CCC(N5CCCCC5)CC4)cc13)-c1cc3c(c(=O)n1C2)COC(=O)[C@]3(O)CC` [Irinotecan, irinotecan], the “CR (complete tumor regression)” value is 73% in series [4] (100 mg/kg weekly×4 doses, in combination with HPPH and PDT, 11/15 mice); 60% in series [4] (in combination with Photobac (PDT), 3/5 mice). Moreover, in series [4] (PDT ± chemotherapy, in the used doses), the toxicity result is “no significant effects”. For the same molecule, the “antitumor activity of the alone drug” value in series [4] (drug alone, 100 mg/kg weekly×4 doses, no PDT) is “not effective”.
Consider `CCCCOC(C)c1c(C)c2cc3nc(c4c5[nH]c(cc6nc(cc1[nH]2)C(C)C6CC)c(C)c5C(=O)N(CCCC)C4=O)C(CCC(=O)OC)C3C` (centres unmarked) [Photobac, 3-(1′-butyloxy)ethyl-3-deacetyl-bacteriopurpurin-18-N-butyl-imide methyl ester], for which the skin photo toxicity result in series [2] is “do not produce any skin photo toxicity”.
With Photofrin, in series [5], the “skin phototoxicity in patients” value is “severe skin phototoxicity”.
